Measurements from PubChem BioAssay AID330 (DTP/NCI, 2004).
“And” between values parts separate entries of the source, which are not always exact repeats. Equal entries are not always repeated. Inconclusive results and toxic doses are left out. Rule for the calls: active = survival T/C of 150% or more; inactive = T/C below 125% in these data.

Test system: P388 leukemia ip, CD2F1 mice, survival T/C
Experiment: NCI In Vivo Anticancer Drug Screen. Data for tumor model P388 Leukemia (intraperitoneal) in CD2F1 (CDF1) mice
Conditions: endpoint: median survival time, higher = longer survival
Summary of the method: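 Mice carrying the transplanted tumor received test compound or vehicle. Survival was recorded in each group, and the value is the treated-group measurement divided by that of the vehicle-treated control group.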

[1] = dose: 100.0 mg/kg/injection, schedule: Q01DX009 (ip), vehicle: saline with Tween-80
[2] = dose: 200.0 mg/kg/injection, schedule: Q01DX009 (ip), vehicle: saline with Tween-80
[3] = dose: 50.0 mg/kg/injection, schedule: Q01DX009 (ip), vehicle: saline
[4] = dose: 100.0 mg/kg/injection, schedule: Q01DX001 (ip), vehicle: saline with Tween-80
[5] = dose: 200.0 mg/kg/injection, schedule: Q01DX001 (ip), vehicle: saline with Tween-80
[6] = dose: 400.0 mg/kg/injection, schedule: Q01DX001 (ip), vehicle: saline with Tween-80
[7] = dose: 12.5 mg/kg/injection, schedule: Q01DX009 (ip), vehicle: distilled water + Tween-80
[8] = dose: 25.0 mg/kg/injection, schedule: Q01DX009 (ip), vehicle: distilled water + Tween-80
[9] = dose: 50.0 mg/kg/injection, schedule: Q01DX009 (ip), vehicle: distilled water + Tween-80
[10] = dose: 100.0 mg/kg/injection, schedule: Q01DX009 (ip), vehicle: distilled water + Tween-80
[11] = dose: 200.0 mg/kg/injection, schedule: Q01DX009 (ip), vehicle: distilled water + Tween-80
[12] = dose: 100.0 mg/kg/injection, schedule: Q01DX009 (ip), vehicle: saline
[13] = dose: 200.0 mg/kg/injection, schedule: Q01DX009 (ip), vehicle: saline
[14] = dose: 50.0 mg/kg/injection, schedule: Q01DX009 (ip), vehicle: Klucel (hydroxypropylcellulose) (HPC)
[15] = dose: 100.0 mg/kg/injection, schedule: Q01DX009 (ip), vehicle: Klucel (hydroxypropylcellulose) (HPC)
[16] = dose: 200.0 mg/kg/injection, schedule: Q01DX009 (ip), vehicle: Klucel (hydroxypropylcellulose) (HPC)
[17] = dose: 60.0 mg/kg/injection, schedule: Q01DX005 (ip), vehicle: saline
[18] = dose: 120.0 mg/kg/injection, schedule: Q01DX005 (ip), vehicle: saline
[19] = dose: 50.0 mg/kg/injection, schedule: Q01DX005 (ip), vehicle: Klucel (hydroxypropylcellulose) (HPC)
[20] = dose: 100.0 mg/kg/injection, schedule: Q01DX005 (ip), vehicle: Klucel (hydroxypropylcellulose) (HPC)
[21] = dose: 200.0 mg/kg/injection, schedule: Q01DX005 (ip), vehicle: Klucel (hydroxypropylcellulose) (HPC)

Measured: T/C

Nc1n[n+](-c2cccc([N+](=O)[O-])c2)no1
inactive: dose: 3.13 mg/kg/injection, schedule: Q01DX009 (ip), vehicle: other 113 % of control | dose: 3.13 mg/kg/injection, schedule: Q01DX009 (ip), vehicle: water 106 % of control | dose: 6.25 mg/kg/injection, schedule: Q01DX009 (ip), vehicle: other 113 % of control | dose: 6.25 mg/kg/injection, schedule: Q01DX009 (ip), vehicle: water 110 % of control | dose: 25.0 mg/kg/injection, schedule: Q01DX009 (ip), vehicle: water 121 % of control | dose: 50.0 mg/kg/injection, schedule: Q01DX009 (ip), vehicle: other 113 % of control

COC1/C=C/OC2(C)Oc3c(C)c(O)c4c(O)c(c(/C=N/n5cnc6c(ncn6C6OC(CO)C(O)C6O)c5=O)c(O)c4c3C2=O)NC(=O)/C(C)=C\C=C\C(C)C(O)C(C)C(O)C(C)C(OC(C)=O)C1C (stereo unspecified)
inactive: dose: 50.0 mg/kg/injection, schedule: Q01DX009 (ip), vehicle: saline with Tween-80 106 % of control | [1] 97 % of control | [2] 102 % of control

CCCCCCCCCCCCCCCC[N+]1([O-])CCCC1
inactive: [3] 102 % of control

CSc1nc(SC)c2nc(SC)sc2n1
inactive: dose: 50.0 mg/kg/injection, schedule: Q01DX001 (ip), vehicle: saline with Tween-80 90 % of control | [4] 88 % of control and 90 % of control | [5] 90 % of control | [6] 87 % of control

CC(C)CC(N)C(=O)NC(CC(C)C)P(=O)(O)O (stereo unspecified)
inactive: dose: 60.0 mg/kg/injection, schedule: Q01DX005 (ip), vehicle: saline with Tween-80 106 % of control | dose: 120.0 mg/kg/injection, schedule: Q01DX005 (ip), vehicle: saline with Tween-80 101 % of control | dose: 240.0 mg/kg/injection, schedule: Q01DX005 (ip), vehicle: saline with Tween-80 104 % of control

O=S1(=O)CC(Sc2ccccc2)C1
inactive: [4] 102 % of control | [5] 96 % of control | [6] 109 % of control

NC(=O)N/N=C1/CCCCCC1(c1ccccc1)c1ccccc1
inactive: dose: 30.0 mg/kg/injection, schedule: Q01DX005 (ip), vehicle: Klucel (hydroxypropylcellulose) (HPC) 95 % of control | dose: 60.0 mg/kg/injection, schedule: Q01DX005 (ip), vehicle: Klucel (hydroxypropylcellulose) (HPC) 89 % of control | dose: 120.0 mg/kg/injection, schedule: Q01DX005 (ip), vehicle: Klucel (hydroxypropylcellulose) (HPC) 91 % of control

Cc1cc(-c2ccccc2)[s+]s1
inactive: [7] 101 % of control | [8] 115 % of control | [9] 117 % of control | [10] 111 % of control | [11] 117 % of control

N=C(N)SCCCN
inactive: dose: 25.0 mg/kg/injection, schedule: Q01DX009 (ip), vehicle: saline 95 % of control | [3] 103 % of control | [12] 112 % of control | [13] 112 % of control

CCOC1c2cc3c(cc2NC(=O)N1C)OCO3 (stereo unspecified)
inactive: dose: 37.5 mg/kg/injection, schedule: Q01DX009 (ip), vehicle: saline with Tween-80 97 % of control | dose: 75.0 mg/kg/injection, schedule: Q01DX009 (ip), vehicle: saline with Tween-80 94 % of control | dose: 150.0 mg/kg/injection, schedule: Q01DX009 (ip), vehicle: saline with Tween-80 100 % of control

COc1ccc(/C(C)=N/N=c2/sc3ccccc3n2CC(=O)O)cc1
inactive: [4] 101 % of control | [5] 101 % of control | [6] 91 % of control

O=C(Sc1ccc(Cl)cc1)N1CCN(C(=O)Sc2ccc(Cl)cc2)CC1
inactive: [14] 92 % of control | [15] 90 % of control | [16] 94 % of control

O=C(O)c1cccc2c1Oc1c(cccc1C(=O)O)S2
inactive: dose: 50.0 mg/kg/injection, schedule: Q01DX005 (ip), vehicle: saline with Tween-80 98 % of control | dose: 100.0 mg/kg/injection, schedule: Q01DX005 (ip), vehicle: saline with Tween-80 107 % of control | dose: 200.0 mg/kg/injection, schedule: Q01DX005 (ip), vehicle: saline with Tween-80 108 % of control

COc1ccc2c(c1)CCC1=C2P(C)(=S)CC1 (stereo unspecified)
inactive: [14] 101 % of control | [15] 104 % of control | [16] 106 % of control

O=C/C=C/c1ccc([N+](=O)[O-])cc1
inactive: dose: 25.0 mg/kg/injection, schedule: Q04DX003 (ip), vehicle: saline with Tween-80 100 % of control | dose: 50.0 mg/kg/injection, schedule: Q04DX003 (ip), vehicle: saline with Tween-80 110 % of control | dose: 100.0 mg/kg/injection, schedule: Q04DX003 (ip), vehicle: saline with Tween-80 105 % of control

CC(Cl)CN=NNc1ccc(C#N)cc1 (stereo unspecified)
inactive: [7] 99 % of control | [8] 100 % of control | [9] 100 % of control | [10] 104 % of control | [11] 119 % of control

CC1CN=C(NS(=O)(=O)c2ccccc2)N1 (stereo unspecified)
inactive: [3] 101 % of control | [12] 93 % of control | [13] 92 % of control

NC(=O)CNCC1Cc2ccccc21 (stereo unspecified)
inactive: [17] 102 % of control | [18] 98 % of control

NC1=C(c2cccc(Cl)c2)C(=O)CC12C=CC(=O)C=C2
inactive: [14] 100 % of control | [15] 104 % of control | [16] 102 % of control

O=C(c1ccccc1)C(C(c1ccccc1)N1CCOCC1)N1CCOCC1 (stereo unspecified)
inactive: [1] 94 % of control | [2] 94 % of control | dose: 400.0 mg/kg/injection, schedule: Q01DX009 (ip), vehicle: saline with Tween-80 94 % of control

Cn1cc(Cl)nc1CO
inactive: dose: 50.0 mg/kg/injection, schedule: Q04DX003 (ip), vehicle: saline sonified 95 % of control | dose: 100.0 mg/kg/injection, schedule: Q04DX003 (ip), vehicle: saline sonified 100 % of control | dose: 200.0 mg/kg/injection, schedule: Q04DX003 (ip), vehicle: saline sonified 100 % of control

CC(NC(=O)C(CCCCN)N(C(=O)OCc1ccccc1)C(=O)OCc1ccccc1)C(=O)O (stereo unspecified) (tested in a mixture with another compound)
inactive: dose: 50.0 mg/kg/injection, schedule: Q01DX005 (ip), vehicle: suspension in saline 111 % of control | dose: 100.0 mg/kg/injection, schedule: Q01DX005 (ip), vehicle: suspension in saline 111 % of control | dose: 200.0 mg/kg/injection, schedule: Q01DX005 (ip), vehicle: suspension in saline 110 % of control

N=C(N)Sc1ccc([N+](=O)[O-])cc1Cl
inactive: [19] 104 % of control | [20] 104 % of control | [21] 101 % of control

CCOC(=O)CCSC(=O)NCCCCCCNC(=O)SCCC(=O)OCC
inactive: [19] 98 % of control | [20] 96 % of control | [21] 102 % of control

COc1cc(C(=O)n2c(=O)oc(=O)c3cc([N+](=O)[O-])ccc32)cc(OC)c1OC
inactive: [17] 101 % of control | [18] 94 % of control | dose: 240.0 mg/kg/injection, schedule: Q01DX005 (ip), vehicle: saline 89 % of control
